Experimental data: ChEMBL document CHEMBL1201862, “PubChem BioAssay data set” (2004)
Calls of active or inactive are those of the source.

How the values were obtained:
[1] = mRNA 3' processing disruption, beta-gal signal increase – luminescence, S. cerevisiae SKY197-pL101, dose response (AID 2525); type: functional, cell-based
[2] = target: T1, Rac GTPase-activating protein 1 (Homo sapiens, UniProt Q9H0H5); assay: blockers of MgcRacGAP-driven Rac1 GTP hydrolysis – biochemical, ADP Hunter fluorescence, primary and confirmatory, confirmation (AID 624330); type: functional
T1 sequence (Q9H0H5 whole entry): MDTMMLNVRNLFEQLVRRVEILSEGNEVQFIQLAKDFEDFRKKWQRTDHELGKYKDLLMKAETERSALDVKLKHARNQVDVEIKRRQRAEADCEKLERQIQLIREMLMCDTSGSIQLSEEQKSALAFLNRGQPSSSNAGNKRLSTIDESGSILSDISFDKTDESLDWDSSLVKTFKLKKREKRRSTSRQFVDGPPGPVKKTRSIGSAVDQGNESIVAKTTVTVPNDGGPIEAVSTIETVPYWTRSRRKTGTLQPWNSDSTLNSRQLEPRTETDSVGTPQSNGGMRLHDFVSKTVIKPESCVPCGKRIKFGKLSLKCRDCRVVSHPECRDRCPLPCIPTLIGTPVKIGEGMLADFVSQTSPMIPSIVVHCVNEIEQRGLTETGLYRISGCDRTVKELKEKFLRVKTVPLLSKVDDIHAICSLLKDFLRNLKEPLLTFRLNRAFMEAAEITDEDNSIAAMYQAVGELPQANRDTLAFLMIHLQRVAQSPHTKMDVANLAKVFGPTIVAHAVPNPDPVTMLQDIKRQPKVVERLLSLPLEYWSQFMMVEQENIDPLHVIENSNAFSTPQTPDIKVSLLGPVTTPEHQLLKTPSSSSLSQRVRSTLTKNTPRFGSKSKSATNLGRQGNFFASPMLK

HEK293 = assay: EBV LMP1 TES2 canonical NF-kB signalling blockers – cell-based, HEK293, luciferase, cherry-pick, dose response (AID 588343); type: functional; conditions: Homo sapiens
[3] = Luminescence Cell-Based Dose Confirmation HTS to Identify Inhibitors of Polyadenylation.; type: functional
INS1 = assay: INS-1E survival protection against cytokine death – cell-based, luminescence, retest, dose response (AID 449756); type: functional; conditions: Rattus norvegicus;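 note: cell death triggered by IL-1 beta plus TNF-alpha plus IFN-gamma mixture; protective hits raise ATP signal compared with cytokine alone wells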
Protein Rev = Protein Rev (Human immunodeficiency virus type 1 group M subtype B (isolate HXB2)(HIV-1), UniProt P04618); assay: blockers of HIV Rev/RRE RNA complex – biochemical, fluorescence polarization, HIV-1, dose response (AID 434976); design: species or system Human immunodeficiency virus 1
Sequence of Protein Rev (P04618 whole entry, the tested form may be a part): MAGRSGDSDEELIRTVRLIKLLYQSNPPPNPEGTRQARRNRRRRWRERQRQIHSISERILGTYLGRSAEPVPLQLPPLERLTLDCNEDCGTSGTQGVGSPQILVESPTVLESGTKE

[4] = target: T2, RNA-binding protein pos-1 (Caenorhabditis elegans, UniProt G5EF15); assay: disruptors of C. elegans POS-1 RNA interaction – biochemical, fluorescence polarization, dose response (AID 1964);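 note: purified POS-1 fused to maltose binding protein made in E. coli; potency of compounds blocking POS-1 binding to fluorescent RNA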
T2 sequence (G5EF15 whole entry): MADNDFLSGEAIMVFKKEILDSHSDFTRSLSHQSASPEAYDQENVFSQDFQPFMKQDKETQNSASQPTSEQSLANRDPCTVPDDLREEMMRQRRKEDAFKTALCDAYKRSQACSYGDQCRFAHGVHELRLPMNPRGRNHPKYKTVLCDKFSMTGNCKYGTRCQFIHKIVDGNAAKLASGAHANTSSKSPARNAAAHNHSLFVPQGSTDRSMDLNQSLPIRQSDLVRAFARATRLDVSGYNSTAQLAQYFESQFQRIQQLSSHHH

[5] = target: Female germline-specific tumor suppressor gld-1 (Caenorhabditis elegans, UniProt Q17339); assay: blockers of GLD-1/TGE RNA complex formation – biochemical, fluorescence polarization, C. elegans, dose response (AID 2802);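 note: fluorescence polarization of labeled TGE RNA bound by purified gld-1 protein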
Sequence of Female germline-specific tumor suppressor gld-1 (Q17339 whole entry): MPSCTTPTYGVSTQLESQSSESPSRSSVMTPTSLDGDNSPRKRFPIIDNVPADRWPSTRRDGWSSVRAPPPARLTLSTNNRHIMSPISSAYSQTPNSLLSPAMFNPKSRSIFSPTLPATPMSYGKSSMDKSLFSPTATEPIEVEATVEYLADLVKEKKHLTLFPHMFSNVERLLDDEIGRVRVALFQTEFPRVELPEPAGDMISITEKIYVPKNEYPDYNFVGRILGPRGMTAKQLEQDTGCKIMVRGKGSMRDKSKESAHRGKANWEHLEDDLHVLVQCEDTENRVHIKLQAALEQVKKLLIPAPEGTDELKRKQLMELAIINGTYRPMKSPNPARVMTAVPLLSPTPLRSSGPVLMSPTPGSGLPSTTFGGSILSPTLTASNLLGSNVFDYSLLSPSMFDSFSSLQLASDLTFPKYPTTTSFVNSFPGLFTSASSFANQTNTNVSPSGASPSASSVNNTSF

Hexokinase HKDC1 = target: T3, Hexokinase HKDC1 (Homo sapiens, UniProt Q2TB90); assay: inhibition of HKDC1 glucose phosphorylation – biochemical, W721R variant, dose response (AID 504729); type: functional
T3 sequence (Q2TB90 whole entry): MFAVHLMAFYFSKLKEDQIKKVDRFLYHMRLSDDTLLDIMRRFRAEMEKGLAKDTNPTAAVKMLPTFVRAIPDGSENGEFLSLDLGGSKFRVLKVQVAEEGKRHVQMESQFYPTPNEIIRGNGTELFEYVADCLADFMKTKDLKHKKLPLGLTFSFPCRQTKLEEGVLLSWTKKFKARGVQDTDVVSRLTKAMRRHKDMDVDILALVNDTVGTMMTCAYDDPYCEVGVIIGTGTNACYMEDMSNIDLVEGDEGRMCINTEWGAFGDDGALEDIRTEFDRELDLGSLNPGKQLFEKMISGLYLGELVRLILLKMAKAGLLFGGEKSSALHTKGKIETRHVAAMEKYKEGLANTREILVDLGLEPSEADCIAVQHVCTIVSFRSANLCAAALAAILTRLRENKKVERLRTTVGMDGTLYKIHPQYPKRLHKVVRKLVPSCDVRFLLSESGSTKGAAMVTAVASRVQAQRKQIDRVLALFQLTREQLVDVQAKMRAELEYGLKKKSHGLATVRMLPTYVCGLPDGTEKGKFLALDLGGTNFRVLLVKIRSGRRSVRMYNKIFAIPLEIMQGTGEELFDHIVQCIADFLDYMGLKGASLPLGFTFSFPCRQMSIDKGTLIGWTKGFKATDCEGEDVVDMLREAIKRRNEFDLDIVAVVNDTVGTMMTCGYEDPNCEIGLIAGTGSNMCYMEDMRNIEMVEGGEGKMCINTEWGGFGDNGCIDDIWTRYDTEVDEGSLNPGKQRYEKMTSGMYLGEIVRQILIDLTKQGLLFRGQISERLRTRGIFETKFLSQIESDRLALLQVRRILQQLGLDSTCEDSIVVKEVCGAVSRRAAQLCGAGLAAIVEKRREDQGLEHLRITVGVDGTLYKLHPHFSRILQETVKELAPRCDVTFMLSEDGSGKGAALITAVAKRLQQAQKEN

[6] = target: T4, Zinc finger protein mex-5 (Caenorhabditis elegans, UniProt Q9XUB2); assay: potency of MEX-5 RNA-binding blockers – biochemical, C. elegans, fluorescence polarization, dose response (AID 1960)
T4 sequence (Q9XUB2 whole entry): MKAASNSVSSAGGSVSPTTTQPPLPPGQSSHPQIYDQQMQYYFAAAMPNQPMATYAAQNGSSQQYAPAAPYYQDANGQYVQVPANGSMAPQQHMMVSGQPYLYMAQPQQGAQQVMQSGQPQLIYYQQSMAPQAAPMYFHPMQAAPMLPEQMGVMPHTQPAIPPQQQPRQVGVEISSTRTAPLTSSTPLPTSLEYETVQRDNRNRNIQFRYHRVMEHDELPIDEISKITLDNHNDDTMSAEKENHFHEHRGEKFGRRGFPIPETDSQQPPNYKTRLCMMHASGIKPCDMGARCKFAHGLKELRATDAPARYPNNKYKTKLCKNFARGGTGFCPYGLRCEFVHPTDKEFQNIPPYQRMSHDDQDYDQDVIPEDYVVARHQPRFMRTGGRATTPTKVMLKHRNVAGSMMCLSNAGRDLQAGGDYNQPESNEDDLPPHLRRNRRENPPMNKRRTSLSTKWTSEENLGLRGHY

## COc1cc(/C=C2\SC(=S)N(NC(=O)c3ccncc3)C2=O)ccc1O
[1]
  EC50: 8.56 µM (active)
[2]
  IC50: 48.1 µM (active)
HEK293
  AC50: 222 µM (active)
[3]
  EC50: 7.59 µM (active)

## COc1cc2c(cc1OC)-c1c(OC)c(OC)c(OC)c3ccnc(c13)C2=O [OXOPURPUREINE]
INS1
  AC50: 3.34 µM (active)
Protein Rev
  IC50: > 75.4 µM (not active)
[4]
  EC50: 28.6 µM (inconclusive)
[5]
  IC50: 6.15 µM (active)
Hexokinase HKDC1
  IC50: 12.1 µM (active)
[6]
  EC50: 4.83 µM (active)
